Laboratory results from patent US7256252B1, “Methods for detecting cell apoptosis” (Cephalon, Inc., priority 1996, dated 2007).

Legend:
[1] = tested on: Hippocampal neurons; assay type: cell-based; conditions: hippocampal neurons in primary culture, 3-nitropropionic acid applied
Source text: Similar results were obtained with other cells. Hippocampal neurons grown in primary culture were stimulated to die by application of the neurotoxic metabolic poison 3-nitropropionic acid.

[2] = tested on: HL60 cells; assay: Etoposide-triggered apoptotic proteolysis in HL60 cells (immunoblot); assay type: cell-based, human; conditions: 17 micromolar etoposide, 2 or 4 hours
Description: HL60 cells (obtained from the American Type Culture Collection, Rockville, Md.) were cultured using published techniques (Collins et al., Nature, 270:347-349 (1977), incorporated herein by reference). Cultures of cells were incubated with either 17 micromolar etoposide (from a 1000× stock solution made in dimethylsulfoxide) to trigger apoptosis or a vehicle. After either 2 or 4 hours, cells were lysed in ice cold 25 millimolar (mM) HEPES (pH 7.5), 5 mM MgCl2, 0.1% Triton X-100 and a cocktail of protease inhibitors (1 mM EGTA, 10 micrograms per ml of aprotinin, 10 micrograms per ml of leupeptin, 7 micrograms per ml of pepstatin A, 1 mM phenylmethylsulfonylfluoride (PMSF). The resulting cell lysates were subjected to SDS-polyacrylamide gel electrophoresis on 4-20% Tris-glycine gradient gels, and the separated proteins transferred to nitrocellulose membranes by Western blotting. The blots were immunostained with Ab127 ( 1/5,000) followed by incubation with alkaline phosphatase conjugated goat anti-rabbit IgG (Bio-Rad, Burlingame, Calif.) and visualized as described previously (Roberts-Lewis et al., J. Neurosci. 14:3934-3944 (1994), incorporated herein by reference).

Row | Compound | apoptotic neurons by Hoechst 33258 nuclear stain [1] | level of about 30 kDa immunoreactive polypeptide [2]
1 | O=C(O)CC[N+](=O)[O-] [3-nitropropionic acid] | presence of apoptotic neurons | –
2 | COc1cc([C@@H]2c3cc4c(cc3[C@@H](O[C@@H]3O[C@@H]5CO[C@@H](C)O[C@H]5[C@H](O)[C@H]3O)[C@H]3COC(=O)[C@H]23)OCO4)cc(OC)c1O [etoposide] | – | increased with increasing time of cell exposure
